# Experimental data published in publication PMC4809498, “Artonin E Induces Apoptosis via Mitochondrial Dysregulation in SKOV-3 Ovarian Cancer Cells” (PLoS ONE, 2016).
# Tests used:
# SKOV-3 cells [1] = assay: DNA fragmentation (laddering) assay; assay type: cell-based, human; settings: SKOV-3, 8 μg/mL, 24, 48, 72 h, 1.5% agarose gel
# Description: SKOV-3 cells were treated with artonin E at different time points, and harvested by adding trypsin to promote detachment. The detached cells were spun down and washed two times with cold PBS. The DNA from cells in the suspension was extracted using the suicide Track^TM DNA ladder isolation kit (Calbiochem, EMD Bioscience, Germany). The cells were then lysed by mixing 55 μL of TE (Tris and EDTA) lysis buffer and 20 μL of enzyme A (RNase A). The resulting mixture was incubated at 37°C for 1 h. Subsequently, 25 μL of enzyme B (proteinase K) was added and the lysate was kept in a water bath at 50°C overnight. Following incubation, 2 μL of Pellet Paint, 60 μL of 3M sodium acetate, and 662 μL of 2-propanol were added to the lysate, and the solution was briefly mixed by inversion and incubated at room temperature for 2 min. The DNA was then precipitated by centrifugation of the samples at 16,000×g for 5 min. The supernatant was removed and the fresh pellets were rinsed two times with 70% and 100% ice-cold ethanol. The pellets were air dried at room temperature for a few minutes to discard the ethanol and resuspended with 50 μL of DNA resuspension buffer. The prepared DNA ladder samples were loaded onto a 1.5% gel electrophoresis set up and run at 50 constant volts for 3 h. […]
# caspase-9 = assay: Western blot, caspase-9; assay type: cell-based, human; settings: SKOV-3, 8 μg/mL, as early as 24 h
# Description: SKOV-3 cells were plated in a 75cm^2 culture flask and exposed to artonin E for 24, 48, and 72 h. Lysis buffer (50 mM Tris–HCl, pH 8.0; 120 mM NaCl, 0.5% NP-40; and 1 mM PMSF) was used to extract the total protein. Protein concentration was determined using a BCA protein assay reagent kit (Bio-Rad, USA). Equal amounts of protein (40 μg) extract were subjected to SDS-PAGE and electroblotted onto a polyvinylidenedifluoride membrane (Bio-Rad). Blots were then blocked with 5% non-fat milk in TBS-Tween buffer 7 (0.12 M Tris-base, 1.5 M NaCl, and 0.1% Tween 20) for 1 h at room temperature. After incubating with the appropriate primary antibody overnight at 4°C, the blots were washed and then incubated with horseradish peroxidase conjugated secondary antibody for 1 h at room temperature. The protein bands were detected using pico or femto chemiluminescence (ECL system) and visualized using a UV gel documentation system. The subsequent primary antibodies, which include those for β-actin (1:10,000), Bax (1:10,000), Bcl-2 (1:10,000), HSP-70 (1:10,000), survivin (1:10,000),caspase -3 (1:10,000), caspase -8 (1:10,000), caspase -9 (1;10,000) and cytochrome c (1:200) were purchased from Abcam, Cambridge, United Kingdom.
# SKOV-3 cells [2] = assay: Annexin V-FITC/PI flow cytometry; assay type: cell-based, human; settings: SKOV-3, 8 μg/mL
# Description: An Annexin V assay was performed using a BD Pharmingen^TM Annexin V-FITC Apoptosis Detection Kit (ApoAlert Annexin V, Clontech, California, USA). The cells were placed in a 6-well plate and left overnight to attach. Cells were then treated with 8 μg/mL of artonin E for 24, 48, and 72h. The treated cells were trypsinized and centrifuged at 1,500 rpm for 10 min to remove residual media. Subsequently, 1X binding buffer was added to rinse the fresh pellets before their resuspension in 200 μL of binding buffer. The cells were then mixed with 5 μL of Annexin V and 10 μL of PI and incubated for 15 min in the dark at room temperature. The prepared cells were immediately analyzed using flow cytometric analysis (FACS Canto 11 Becton-Dickson). Then, 300 μL of binding buffer was added to each sample to adjust the reaction volume to at least 500 μL for the flow cytometric analysis. The cells treated with DMSO (0.1%, v/v) were used as control.
# SKOV-3 cells [3] = assay: Intracellular ROS generation (DCFH-DA); assay type: cell-based, human; settings: SKOV-3, 8 μg/mL
# Description: 2′,7′-Dichlorofluorescin diacetate (DCFH-DA) was used to examine the production of intracellular reactive oxygen species in SKOV-3 cells treated with artonin E. The SKOV-3 cells were seeded in the 96-well black plate and incubated overnight to attach. The cells were then treated with 8 μg/mL of artonin E for 24, 48, and 72 h. Hank’s balanced salt solution without serum was used to wash the cells. Then, 100 μL of DCFH-DA solution was added to each designated well, and the plate was incubated at 37°C for 30 min. The results were analyzed using a fluorescence microplate reader (Tecan Infinite M 200 PRO, Männedorf, Switzerland) at 485 nm excitation and 520 nm emission.
# CHO cells = assay: MTT cell viability assay, CHO; assay type: cell-based, Chinese hamster; settings: Cricetulus griseus, 24 h treatment
# Description: Metastatic ovarian adenocarcinoma (SKOV-3) and normal Chinese hamster ovary (CHO) cell lines were originally obtained from the American Type Culture Collection (ATCC; Manassas, VA). SKOV-3 cells were cultured in McCoy’s 5A medium and CHO cells were cultured in F12K medium. A human periodontal ligament fibroblast cell line was purchased from Lonza, USA and maintained in stroma cell basal medium. T1074 (normal immortalized human ovarian surface epithelial cell line) was originally purchased from Applied Biological Materials (abm®) Canada and cultured in Prigrow 1 medium.
# The inhibitory effects of artonin E and two positive controls paclitaxel and carboplatin were examined by MTT assay. Cells at a density of 5×10^3cells/well were placed in a 96-well plate and left for 24 h to attach. The attached cells were exposed to artonin E, paclitaxel, and carboplatin at different concentrations and incubated for 24, 48, and 72 h. Subsequently, 20 μL of 5 mg/mL MTT solution was added after drug treatment and the resulting mixture was incubated for 4 h to form purple formazan. Afterward, 100 μL of dimethyl sulfoxide (DMSO) was transferred into each well to dissolve the purple formazan, and results were measured using a microplate reader (Tecan Infinite M 200 PRO, Männedorf, Switzerland) at an absorbance of 570 nm. […]
# [4] = parameters: method as in PMID 17855020; settings: cited from earlier work
smiles,measurement,setting,value
"CC(C)=CCc1c(-c2cc(O)c(O)cc2O)oc2c3c(cc(O)c2c1=O)OC(C)(C)C=C3 [Artonin E, artonin E]",DNA fragmentation (ladder pattern),SKOV-3 cells [1],distinctly observed
same,protein expression level of caspase-9,caspase-9,significantly (p<0.05) up-regulated
same,cells at the early stage of apoptosis,SKOV-3 cells [2]; 24 h post treatment,more than 40%
same,cells at the late stage of apoptosis,SKOV-3 cells [2]; 48 h post treatment,more than 40%
same,increase in the formation of ROS compared with untreated cells,SKOV-3 cells [3]; 24 and 48 h after treatment,twofold
same,ROS induction,SKOV-3 cells [3]; 72 h after treatment,slightly decreased
same,IC50,CHO cells,57.6 ± 2 µg/mL
same,radical scavenging against the DPPH radical,[4],strong radical scavenging properties
